One may read the EC50 as the concentration that produces a half-maximal response.

Sequence of human APJ receptor (P35414 whole entry): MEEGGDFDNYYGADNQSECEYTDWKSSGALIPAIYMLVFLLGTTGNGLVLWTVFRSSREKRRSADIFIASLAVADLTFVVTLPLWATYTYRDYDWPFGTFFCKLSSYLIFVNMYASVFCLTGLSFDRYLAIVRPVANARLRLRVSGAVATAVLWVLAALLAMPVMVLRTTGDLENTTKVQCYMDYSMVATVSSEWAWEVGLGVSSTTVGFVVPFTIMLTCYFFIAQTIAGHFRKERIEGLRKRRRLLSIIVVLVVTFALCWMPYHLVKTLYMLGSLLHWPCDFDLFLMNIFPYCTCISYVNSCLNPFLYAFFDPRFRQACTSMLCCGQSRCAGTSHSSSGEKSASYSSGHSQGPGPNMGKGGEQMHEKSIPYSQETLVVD

This assay concerns the target human APJ receptor (Homo sapiens (Human), UniProt P35414). The experiment in a line: [35S]GTPγS binding assay on membranes from CHO cells stably expressing human APJ receptor. It counts as biochemical. The settings on record: membranes of CHO cells stably expressing human APJ receptor, read-out: Activity hAPJ SPA EC50 IP. The essentials: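 [35S]GTPγS binding measured on membranes from CHO cells stably expressing FLAG-tagged human APJ, with GDP, MgCl2 and NaCl levels optimized beforehand. Incubation 90 min at RT, imager read-out; EC50 from non-linear regression, averaged over several independent experiments.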
(In general: GTPγS resists hydrolysis and so accumulates on activated G proteins.)
Regarding `COc1cccc(-c2nnc(NS(=O)(=O)[C@@H](C)[C@H](OC)c3ncc(Cl)cn3)n2[C@@H](C)c2ncnn2C)n1` (single isomer, unassigned) [Example 248.0, (1R,2S)-1-(5-chloro-2-pyrimidinyl)-1-methoxy-N-(5-(6-methoxy-2-pyridinyl)-4-((1S)-1-(1-methyl-1H-1,2,4-triazol-5-yl)ethyl)-4H-1,2,4-triazol-3-yl)-2-propanesulfonamide or (1R,2S)-1-(5-chloro-2-pyrimidinyl)-1-methoxy-N-(5-(6-methoxy-2-pyridinyl)-4-((1R)-1-(1-methyl-1H-1,2,4-triazol-5-yl)ethyl)-4H-1,2,4-triazol-3-yl)-2-propanesulfonamide], the EC50 is 270 nM.

On to `COc1cccc(-c2nnc(NS(=O)(=O)[C@@H](C)[C@H](C)c3ncc(Cl)cn3)n2[C@H](C)c2csnn2)n1` (single isomer, unassigned) [Example 296.0, (2S,3R)-N-(4-((R)-1-(1,2,3-thiadiazol-4-yl)ethyl)-5-(6-methoxypyridin-2-yl)-4H-1,2,4-triazol-3-yl)-3-(5-chloropyrimidin-2-yl)butane-2-sulfonamide or (2S,3R)-N-(4-((S)-1-(1,2,3-thiadiazol-4-yl)ethyl)-5-(6-methoxypyridin-2-yl)-4H-1,2,4-triazol-3-yl)-3-(5-chloropyrimidin-2-yl)butane-2-sulfonamide], for which the EC50 was 1.8 nM. The result for `COC[C@H](C)n1c(NS(=O)(=O)[C@@H](C)[C@H](OC)c2ncc(Cl)cn2)nnc1-c1cccc(OC)n1` [Example 48.0] reads 1.3 nM. Turning to `COc1cccc(-c2nnc(NS(=O)(=O)[C@@H](C)[C@H](OC)c3ncc(Cl)cn3)n2[C@@H](C)c2ccno2)n1` (single isomer, unassigned) [Example 212.0, (1R,2S)-1-(5-chloro-2-pyrimidinyl)-1-methoxy-N-(5-(6-methoxy-2-pyridinyl)-4-((1S)-1-(1,2-oxazol-5-yl)ethyl)-4H-1,2,4-triazol-3-yl)-2-propanesulfonamide or (1R,2S)-1-(5-chloro-2-pyrimidinyl)-1-methoxy-N-(5-(6-methoxy-2-pyridinyl)-4-((1R)-1-(1,2-oxazol-5-yl)ethyl)-4H-1,2,4-triazol-3-yl)-2-propanesulfonamide], the EC50 turned out to be 0.85 nM. For `COc1cccc(-c2nnc(NS(=O)(=O)[C@@H](C)[C@H](OC)c3ncc(Cl)cn3)n2[C@@H](C)c2ccno2)n1` (mixture of isomers) [Example 200.0, (1R,2S)-1-(5-chloro-2-pyrimidinyl)-1-methoxy-N-(5-(6-methoxy-2-pyridinyl)-4-((1R)-1-(1,2-oxazol-5-yl)ethyl)-4H-1,2,4-triazol-3-yl)-2-propanesulfonamide and (1R,2S)-1-(5-chloro-2-pyrimidinyl)-1-methoxy-N-(5-(6-methoxy-2-pyridinyl)-4-((1S)-1-(1,2-oxazol-5-yl)ethyl)-4H-1,2,4-triazol-3-yl)-2-propanesulfonamide], the EC50 was 0.87 nM.

As to `COc1cccc(-c2nnc(NS(=O)(=O)[C@@H](C)[C@H](C)c3ncc(Cl)cn3)n2Cc2cc(C)on2)n1` [Example 272.0, (2S,3R)-3-(5-chloropyrimidin-2-yl)-N-(5-(6-methoxypyridin-2-yl)-4-((5-methylisoxazol-3-yl)methyl)-4H-1,2,4-triazol-3-yl)butane-2-sulfonamide], the half-maximal effective concentration (EC50) is 12 nM. With `COc1cccc(-c2nnc(NS(=O)(=O)[C@@H](C)[C@H](OC)c3ncc(Cl)cn3)n2[C@@H](C)c2ncn(C)n2)n1` (single isomer, unassigned) [Example 235.0, (1R,2S)-1-(5-chloro-2-pyrimidinyl)-1-methoxy-N-(5-(6-methoxy-2-pyridinyl)-4-((1S)-1-(1-methyl-1H-1,2,4-triazol-3-yl)ethyl)-4H-1,2,4-triazol-3-yl)-2-propanesulfonamide or (1R,2S)-1-(5-chloro-2-pyrimidinyl)-1-methoxy-N-(5-(6-methoxy-2-pyridinyl)-4-((1R)-1-(1-methyl-1H-1,2,4-triazol-3-yl)ethyl)-4H-1,2,4-triazol-3-yl)-2-propanesulfonamide], the EC50 was found to be 100 nM. In the case of `Cc1cnc([C@H](OC(C)C)[C@H](C)S(=O)(=O)Nc2nnc(-c3cncc(C)c3)n2C2(C)CC2)nc1` [Example 58.0], the EC50 turned out to be 42 nM. Regarding `COCC(COC)n1c(NS(=O)(=O)[C@@H](C)[C@H](OC)c2ncc(C)cn2)nnc1-c1ccccn1` [Example 8.0, (1R,2S)-N-(4-(1,3-dimethoxy-2-propanyl)-5-(2-pyridinyl)-4H-1,2,4-triazol-3-yl)-1-methoxy-1-(5-methyl-2-pyrimidinyl)-2-propanesulfonamide], the EC50 came to 19 nM. Take `COc1ccc(Cn2c(NS(=O)(=O)[C@@H](C)[C@H](OC)c3ncc(Cl)cn3)nnc2-c2cccc(OC)n2)cc1` [Example 170.0, (1R,2S)-1-(5-chloropyrimidin-2-yl)-1-methoxy-N-(4-(4-methoxybenzyl)-5-(6-methoxypyridin-2-yl)-4H-1,2,4-triazol-3-yl)propane-2-sulfonamide]: the EC50 is 0.76 nM. The result for `CC[C@@H](C)n1c(NS(=O)(=O)[C@@H](C)[C@H](OC)c2ncc(Cl)cn2)nnc1-c1cccc(OC)n1` (single isomer, unassigned) [Example 55.0] reads 0.4 nM; that for `COC[C@@H](C)n1c(NS(=O)(=O)[C@@H](C)[C@H](OC)c2ncc(Cl)cn2)nnc1-c1cccc(OC)n1` [Example 49.0], 0.88 nM; that for `CC[C@@H](C)n1c(NS(=O)(=O)[C@@H](C)[C@H](OC)c2ncc(Cl)cn2)nnc1-c1cccc(OC)n1` (single isomer, unassigned) [Example 54.0], 0.5 nM.

Regarding `COc1cccc(-c2nnc(NS(=O)(=O)[C@@H](C)[C@H](OC)c3ncc(Cl)cn3)n2CCSC)n1` [Example 26.0, (1R,2S)-1-(5-chloropyrimidin-2-yl)-1-methoxy-N-(5-(6-methoxypyridin-2-yl)-4-(2-(methylthio)ethyl)-4H-1,2,4-triazol-3-yl)propane-2-sulfonamide], the EC50 was 12 nM. The same measure for `COc1cccc(-c2nnc(NS(=O)(=O)[C@@H](C)[C@H](OC)c3ncc(Cl)cn3)n2CC2CCO2)n1` (stereo partly drawn) [Example 137.0, (1R,2S)-1-(5-chloropyrimidin-2-yl)-1-methoxy-N-(5-(6-methoxypyridin-2-yl)-4-(oxetan-2-ylmethyl)-4H-1,2,4-triazol-3-yl)propane-2-sulfonamide]: 22 nM. For the compound `COc1cccc(-c2nnc(NS(=O)(=O)[C@@H](C)[C@H](OC)c3ncc(Cl)cn3)n2[C@@H]2C[C@@H]2F)n1` [Example 169.0, (1R,2S)-1-(5-Chloropyrimidin-2-yl)-N-(4-((1R,2S)-2-fluorocyclopropyl)-5-(6-methoxypyridin-2-yl)-4H-1,2,4-triazol-3-yl)-1-methoxypropane-2-sulfonamide], the concentration giving a half-maximal response (EC50) stood at 20 nM. The result for `COc1cccc(-c2nnc(NS(=O)(=O)[C@@H](C)[C@H](OC)c3ncc(Cl)cn3)n2CC[S@+](C)[O-])n1` (single isomer, unassigned) [Example 95.0] reads 26 nM; that for `COc1cccc(-c2nnc(NS(=O)(=O)[C@@H](C)[C@H](OC)c3ncc(Cl)cn3)n2[C@@H]2CCC23CCC3)n1` (stereo in doubt) [Example 56.0], 1.9 nM. In the case of `COCC1(n2c(NS(=O)(=O)[C@@H](C)[C@@H](OC(C)C)c3ncc(C)cn3)nnc2-c2ccccn2)CC1` [Example 65.0], the 50% effective concentration (EC50) was determined as 24 nM.

The values above are taken from patent publication US10689367B2, “Triazole pyridyl compounds as agonists of the APJ receptor” (AMGEN INC., priority 2016, dated 2020).
